Patent US8236801B2, “2-aza-bicyclo[2.2.1]heptane derivatives” (Actelion Pharmaceuticals Ltd., priority 2008, dated 2012)
Where two headings read alike, the source gives them in different places.

What was measured:
human orexin-1 receptor = target: T1, human orexin-1 receptor (Homo sapiens, UniProt O43613); experiment: FLIPR calcium assay, antagonism of orexin-A in CHO cells expressing the human orexin-1 receptor; type: cell-based; conditions: read-out: OX1 IC50
T1 construct: expressed in transfected cells; host or cells: Chinese hamster ovary (CHO) cells, G418 selection
T1 sequence (O43613 1-425): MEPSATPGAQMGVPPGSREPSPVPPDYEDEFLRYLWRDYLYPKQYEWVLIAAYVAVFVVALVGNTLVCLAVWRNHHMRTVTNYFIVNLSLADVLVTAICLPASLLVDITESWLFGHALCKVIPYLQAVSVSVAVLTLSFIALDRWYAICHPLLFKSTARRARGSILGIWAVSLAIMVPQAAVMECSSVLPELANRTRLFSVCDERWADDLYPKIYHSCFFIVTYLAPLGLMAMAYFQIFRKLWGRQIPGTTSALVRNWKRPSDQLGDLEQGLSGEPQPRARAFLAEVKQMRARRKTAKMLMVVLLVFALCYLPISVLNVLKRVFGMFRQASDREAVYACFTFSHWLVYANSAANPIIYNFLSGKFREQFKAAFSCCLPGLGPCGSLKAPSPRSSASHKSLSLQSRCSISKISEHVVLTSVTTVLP
Procedure: (§1) Chinese hamster ovary (CHO) cells expressing the human orexin-1 receptor and the human orexin-2 receptor, respectively, are grown in culture medium (Ham F-12 with L-Glutamine) containing 300 μg/ml G418, 100 U/ml penicillin, 100 μg/ml streptomycin and 10% heat inactivated fetal calf serum (FCS). The cells are seeded at 20′000 cells/well into 384-well black clear bottom sterile plates (Greiner). The seeded plates are incubated overnight at 37° C. in 5% CO2. Human orexin-A as an agonist is prepared as 1 mM stock solution in MeOH:water (1:1), diluted in HBSS containing 0.1% bovine serum albumin (BSA), NaHCO3: 0.375 g/l and 20 mM HEPES for use in the assay at a final concentration of 3 nM. Antagonists are prepared as 10 mM stock solution in DMSO, then diluted in 384-well plates, first in DMSO, then in HBSS containing 0.1% bovine serum albumin (BSA), NaHCO3: 0.375 g/l and 20 mM HEPES. On the day of the assay, 50 μl of staining buffer (HBSS containing 1% FCS, 20 mM HEPES, NaHCO3: 0.375 g/l, 5 mM probenecid (Sigma) and 3 μM of the fluorescent calcium indicator fluo-4 AM (1 mM stock solution in DMSO, containing 10% pluronic) is added to each well. The 384-well cell-plates are incubated for 50 min at 37° C. in 5% CO2 followed by equilibration at rt for 30-120 min before measurement. Within the Fluorescent Imaging Plate Reader (FLIPR2 or FLIPR Tetra, Molecular Devices), antagonists are added to the plate in a volume of 10 μl/well, incubated for 10 min and finally 10 μl/well of agonist is added. Fluorescence is measured for each well at 1 second intervals, and the height of each fluorescence peak is compared to the height of the fluorescence peak induced by 3 nM orexin-A with vehicle in place of antagonist. For each antagonist, the IC50 value (the concentration of compound needed to inhibit 50% of the agonistic response) is determined. Optimized conditions may be achieved by adjustment of pipetting speed and cell splitting regime. The calculated IC50 values of the compounds may fluctuate depending on the daily cellular assay performance. Fluctuations of this kind are known to those skilled in the art.

human orexin-2 receptor = target: T2, human orexin-2 receptor (Homo sapiens, UniProt O43614); experiment: FLIPR calcium assay, antagonism of orexin-A in CHO cells expressing the human orexin-2 receptor; type: cell-based; conditions: read-out: OX2 IC50
T2 construct: expressed in transfected cells; host or cells: Chinese hamster ovary (CHO) cells, G418 selection
T2 sequence (O43614 1-444): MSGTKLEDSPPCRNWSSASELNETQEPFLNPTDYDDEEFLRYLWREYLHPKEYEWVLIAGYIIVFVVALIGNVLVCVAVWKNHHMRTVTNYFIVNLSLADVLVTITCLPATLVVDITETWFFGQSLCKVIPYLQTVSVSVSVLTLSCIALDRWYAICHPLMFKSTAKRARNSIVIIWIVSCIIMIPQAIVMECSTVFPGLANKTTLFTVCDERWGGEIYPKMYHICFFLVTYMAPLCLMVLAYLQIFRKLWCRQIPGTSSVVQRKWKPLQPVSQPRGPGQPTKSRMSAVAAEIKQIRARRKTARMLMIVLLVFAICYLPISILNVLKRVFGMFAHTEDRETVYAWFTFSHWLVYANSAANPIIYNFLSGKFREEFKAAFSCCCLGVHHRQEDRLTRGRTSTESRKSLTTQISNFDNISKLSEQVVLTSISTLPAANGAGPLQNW
Procedure: as §1

[1] = measured with FLIPR Tetra (marked *), 3 nM orexin-A, CHO cells
[2] = measured with FLIPR 2, 3 nM orexin-A, CHO cells
[3] = measured with FLIPR Tetra (marked *), geometric mean from n = 2 values

| Structure (SMILES) | IC50 (human orexin-1 receptor; [1]) [nM] | IC50 (human orexin-2 receptor; [1]) [nM] | further results |
| --- | --- | --- | --- |
| CN(C)c1nc(C(=O)N2[C@@H]3CC[C@@H](C3)[C@H]2CNC(=O)c2nsc3ccccc23)c(-c2cccc(F)c2)s1 [Example 105, Benzo[d]isothiazole-3-carboxylic acid {(1R,3S,4S)-2-[2-dimethylamino-5-(3-fluoro-phenyl)-thiazole-4-carbonyl]-2-aza-bicyclo[2.2.1]hept-3-ylmethyl}-amide] | 65 | 421 | – |
| Cc1nc(C(=O)N2[C@@H]3CC[C@@H](C3)[C@H]2CNC(=O)c2cccc3cccnc23)c(-c2cccc(Cl)c2)s1 [Example 1, Quinoline-8-carboxylic acid {(1R,3S,4S)-2-[5-(3-chloro-phenyl)-2-methyl-thiazole-4-carbonyl]-2-aza-bicyclo[2.2.1]hept-3-ylmethyl}-amide] | – | – | IC50 (human orexin-1 receptor; [2]): 59 nM; IC50 (human orexin-2 receptor; [2]): 622 nM |
| CN(C)c1nc(C(=O)N2[C@@H]3CC[C@@H](C3)[C@H]2CNC(=O)c2nn(C)c3ccccc23)c(-c2ccccc2)s1 [Example 63, 1-Methyl-1H-indazole-3-carboxylic acid [(1R,3S,4S)-2-(2-dimethylamino-5-phenyl-thiazole-4-carbonyl)-2-aza-bicyclo[2.2.1]hept-3-ylmethyl]-amide] | 307 | 61 | – |
| Cc1nc2c(C(=O)NC[C@@H]3[C@H]4CC[C@H](C4)N3C(=O)c3nc(N(C)C)sc3-c3cccc(F)c3)cccc2o1 [Example 79, 2-Methyl-benzooxazole-4-carboxylic acid {(1R,3S,4S)-2-[2-dimethylamino-5-(3-fluoro-phenyl)-thiazole-4-carbonyl]-2-aza-bicyclo[2.2.1]hept-3-ylmethyl}-amide] | – | – | IC50 (human orexin-1 receptor; [3]): 64 nM; IC50 (human orexin-2 receptor; [3]): 71 nM |
| Nc1nc(C(=O)N2[C@@H]3CC[C@@H](C3)[C@H]2CNC(=O)c2cccc3c2OCCO3)c(-c2cccc(F)c2)s1 [Example 5, 2,3-Dihydro-benzo[1,4]dioxine-5-carboxylic acid {(1R,3S,4S)-2-[2-amino-5-(3-fluoro-phenyl)-thiazole-4-carbonyl]-2-aza-bicyclo[2.2.1]hept-3-ylmethyl}-amide] | – | – | IC50 (human orexin-1 receptor; [2]): 149 nM; IC50 (human orexin-2 receptor; [2]): 29 nM |
| Cc1nc2sccn2c1C(=O)NC[C@@H]1[C@H]2CC[C@H](C2)N1C(=O)c1nc(C2CC2)sc1-c1ccccc1 [Example 31, 6-Methyl-imidazo[2,1-b]thiazole-5-carboxylic acid [(1R,3S,4S)-2-(2-cyclopropyl-5-phenyl-thiazole-4-carbonyl)-2-aza-bicyclo[2.2.1]hept-3-ylmethyl]-amide] | 138 | 55 | – |
| Cc1nc2sccn2c1C(=O)NC[C@@H]1[C@H]2CC[C@H](C2)N1C(=O)c1ncsc1-c1ccc(F)cc1 [Example 35, 6-Methyl-imidazo[2,1-b]thiazole-5-carboxylic acid {(1R,3S,4S)-2-[5-(4-fluoro-phenyl)-thiazole-4-carbonyl]-2-aza-bicyclo[2.2.1]hept-3-ylmethyl}-amide] | 278 | 808 | – |
| Cc1ncc(C(=O)N2[C@@H]3CC[C@@H](C3)[C@H]2CNC(=O)c2cccc3occc23)c(-c2ccccc2)n1 [Example 11, Benzofuran-4-carboxylic acid [(1R,3S,4S)-2-(2-methyl-4-phenyl-pyrimidine-5-carbonyl)-2-aza-bicyclo[2.2.1]hept-3-ylmethyl]-amide] | – | – | IC50 (human orexin-1 receptor; [2]): 75 nM; IC50 (human orexin-2 receptor; [2]): 2140 nM |
| Cc1nc(C(=O)N2[C@@H]3CC[C@@H](C3)[C@H]2CNc2ncc(Br)cn2)c(-c2ccccc2)s1 [Example 46, {(1R,3S,4S)-3-[(5-Bromo-pyrimidin-2-ylamino)-methyl]-2-aza-bicyclo[2.2.1]hept-2-yl}-(2-methyl-5-phenyl-thiazol-4-yl)-methanone] | 488 | 364 | – |
| CCn1nc(C)cc1C(=O)NC[C@@H]1[C@H]2CC[C@H](C2)N1C(=O)c1ccccc1-c1ccccc1 [Example 40, 2-Ethyl-5-methyl-2H-pyrazole-3-carboxylic acid [(1R,3S,4S)-2-(biphenyl-2-carbonyl)-2-aza-bicyclo[2.2.1]hept-3-ylmethyl]-amide] | – | – | IC50 (human orexin-1 receptor; [2]): > 10000 nM; IC50 (human orexin-2 receptor; [2]): 441 nM |
| COc1cccc(-c2sc(N(C)C)nc2C(=O)N2[C@@H]3CC[C@@H](C3)[C@H]2CNC(=O)c2cccc3ncsc23)c1 [Example 97, Benzothiazole-7-carboxylic acid {(1R,3S,45)-2-[2-dimethylamino-5-(3-methoxy-phenyl)-thiazole-4-carbonyl]-2-aza-bicyclo[2.2.1]hept-3-ylmethyl}-amide] | – | – | IC50 (human orexin-1 receptor; [3]): 12 nM; IC50 (human orexin-2 receptor; [3]): 14 nM |

Second part, led by results:

| IC50 (human orexin-1 receptor; [1]) [nM] | IC50 (human orexin-2 receptor; [1]) [nM] | Structure (SMILES) | further results |
| --- | --- | --- | --- |
| 80 | 15 | COc1nc(C(=O)N2[C@@H]3CC[C@@H](C3)[C@H]2CNC(=O)c2cccc3ncsc23)c(-c2cccc(Cl)c2)s1 [Example 80, Benzothiazole-7-carboxylic acid {(R,S,S)-2-[5-(3-chloro-phenyl)-2-methoxy-thiazole-4-carbonyl]-2-aza-bicyclo[2.2.1]hept-3-ylmethyl}-amide] | – |
| 305 | 37 | Cc1nc(C(=O)N2[C@@H]3CC[C@@H](C3)[C@H]2CNC(=O)c2cccc3ncsc23)c(-c2cccc(OC(F)(F)F)c2)o1 [Example 104, Benzothiazole-7-carboxylic acid {(1R,3S,4S)-2-[2-methyl-5-(3-trifluoromethoxy-phenyl)-oxazole-4-carbonyl]-2-aza-bicyclo[2.2.1]hept-3-ylmethyl}-amide] | – |
| 1270 | 81 | O=C(NC[C@@H]1[C@H]2CC[C@H](C2)N1C(=O)c1sccc1-c1ccc2c(c1)OCO2)c1cccc2ncsc12 [Example 94, Benzothiazole-7-carboxylic acid [(1R,3S,4S)-2-(3-benzo[1,3]dioxol-5-yl-thiophene-2-carbonyl)-2-aza-bicyclo[2.2.1]hept-3-ylmethyl]-amide] | – |
| 117 | 32 | CCN(C)c1nc(C(=O)N2[C@H]3CC[C@H](C3)[C@@H]2CNC(=O)c2cccc3ncsc23)c(-c2ccc(F)cc2)s1 [Example 118, Benzothiazole-7-carboxylic acid {(1S,3R,4R)-2-[2-(ethyl-methyl-amino)-5-(4-fluoro-phenyl)-thiazole-4-carbonyl]-2-aza-bicyclo[2.2.1]hept-3-ylmethyl}-amide] | – |
| 23 | 30 | O=C(NC[C@H]1[C@@H]2CC[C@@H](C2)N1C(=O)c1nc(N2CCCC2)sc1-c1ccccc1F)c1cccc2ncsc12 [Example 110, Benzothiazole-7-carboxylic acid {(1S,3R,4R)-2-[5-(2-fluoro-phenyl)-2-pyrrolidin-1-yl-thiazole-4-carbonyl]-2-aza-bicyclo[2.2.1]hept-3-ylmethyl}-amide] | – |
| 707 | 19 | O=C(NC[C@@H]1[C@H]2CC[C@H](C2)N1C(=O)c1nccnc1-c1ccc2cc[nH]c2c1)c1cccc2ncsc12 [Example 109, Benzothiazole-7-carboxylic acid {(1R,3S,4S)-2-[3-(1H-indol-6-yl)-pyrazine-2-carbonyl]-2-aza-bicyclo[2.2.1]hept-3-ylmethyl}-amide] | – |
